What is called IC50 is the concentration that inhibits the measured activity by half.

This note sets out measurements from patent US20240190892A1, “PLASMA KALLIKREIN INHIBITORS” (Merck Sharp & Dohme LLC, priority 2021, published 2024).

One assay has as its target Coagulation factor XIa (Homo sapiens (Human), UniProt P03951). The assay can be described thus: Factor XIa Assay. Type of assay: biochemical. The settings on record: human factor XIa 0.04 nM, substrate GPR-AFC, 30 min pre-incubation at 25° C., pH 7.4; read-out: FXIa IC50.
The next assay concerns the target Human plasma kallikrein (Homo sapiens (Human), UniProt P03952). The assay is described as follows: Plasma Kallikrein Assay. Type of assay: biochemical. As to conditions: purified Human plasma kallikrein 0.5 nM, substrate Acetyl-K-P-R-AFC, pH 7.4; read-out: PKal IC50. The method, boiled down: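 Purified human plasma kallikrein (0.5 nM) was tested in 50 mM HEPES pH 7.4 with 150 mM NaCl, 5 mM CaCl2 and 0.1% PEG 8000, using Acetyl-K-P-R-AFC substrate at a final concentration ≤0.2 Km after enzyme–inhibitor equilibration. Initial-rate fluorescence was read at 405/510 nm. IC50 came from a four-parameter fit, and Ki from Cheng–Prusoff.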

Human plasma kallikrein, sequence (P03952 391-638 limits assumed): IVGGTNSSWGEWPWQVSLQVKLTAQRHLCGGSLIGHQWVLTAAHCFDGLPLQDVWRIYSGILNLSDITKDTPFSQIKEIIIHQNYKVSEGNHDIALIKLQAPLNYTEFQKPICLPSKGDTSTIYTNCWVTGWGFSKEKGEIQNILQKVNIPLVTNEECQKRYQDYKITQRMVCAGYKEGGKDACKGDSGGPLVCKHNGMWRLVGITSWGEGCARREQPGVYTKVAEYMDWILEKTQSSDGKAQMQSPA
Human plasma kallikrein, sequence (P03952 20-390 partner limits assumed): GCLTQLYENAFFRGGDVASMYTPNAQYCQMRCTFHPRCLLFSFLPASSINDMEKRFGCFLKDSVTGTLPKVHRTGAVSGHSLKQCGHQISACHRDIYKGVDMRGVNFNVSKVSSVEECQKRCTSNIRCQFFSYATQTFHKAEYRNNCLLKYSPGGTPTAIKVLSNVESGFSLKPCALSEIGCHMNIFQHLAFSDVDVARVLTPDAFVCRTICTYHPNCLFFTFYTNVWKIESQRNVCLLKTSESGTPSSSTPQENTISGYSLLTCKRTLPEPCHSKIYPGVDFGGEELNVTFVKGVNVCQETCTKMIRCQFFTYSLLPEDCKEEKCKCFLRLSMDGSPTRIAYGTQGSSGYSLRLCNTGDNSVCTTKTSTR
Coagulation factor XIa, sequence (P03951 388-625 limits assumed): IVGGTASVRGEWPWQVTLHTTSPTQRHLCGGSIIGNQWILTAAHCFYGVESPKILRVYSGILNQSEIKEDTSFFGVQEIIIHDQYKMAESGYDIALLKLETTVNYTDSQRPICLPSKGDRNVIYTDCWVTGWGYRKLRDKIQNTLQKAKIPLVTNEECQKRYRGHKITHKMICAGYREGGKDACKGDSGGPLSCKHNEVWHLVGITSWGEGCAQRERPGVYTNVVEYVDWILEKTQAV
Coagulation factor XIa, sequence (P03951 19-387 partner limits assumed): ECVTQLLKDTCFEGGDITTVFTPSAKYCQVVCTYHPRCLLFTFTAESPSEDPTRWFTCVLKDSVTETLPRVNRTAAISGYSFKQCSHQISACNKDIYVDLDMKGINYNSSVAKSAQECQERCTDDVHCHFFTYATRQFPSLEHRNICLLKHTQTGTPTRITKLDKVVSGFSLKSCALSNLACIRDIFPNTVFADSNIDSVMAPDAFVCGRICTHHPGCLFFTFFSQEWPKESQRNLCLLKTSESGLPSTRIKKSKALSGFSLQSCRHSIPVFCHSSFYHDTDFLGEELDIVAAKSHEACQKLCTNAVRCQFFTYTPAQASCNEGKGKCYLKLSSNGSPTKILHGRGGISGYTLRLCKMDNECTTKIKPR

Regarding `O=C1Nc2ccc(Cl)c(F)c2[C@]2(CCN(c3cncc(C(=O)NCc4ccc(N5CC(F)C5)nc4)n3)C2)O1` [Example 33, (S)-6-(6-Chloro-5-fluoro-2-oxo-1,2-dihydrospiro[benzo[d][1,3]oxazine-4,3′-pyrrolidin]-1′-yl)-N-((6-(3-fluoroazetidin-1-yl)pyridin-3-yl)methyl)pyrazine-2-carboxamide], the IC50 was determined as 10 µM on Coagulation factor XIa and 0.0254 µM on Human plasma kallikrein.
Take `COCC1CN(c2ccc(CNC(=O)c3cncc(N4CC[C@]5(C4)OC(=O)Nc4ccc(Cl)c(F)c45)n3)cn2)C1` [Example 34, (S)-6-(6-Chloro-5-fluoro-2-oxo-1,2-dihydrospiro[benzo[d][1,3]oxazine-4,3′-pyrrolidin]-1′-yl)-N-((6-(3-(methoxymethyl)azetidin-1-yl)pyridin-3-yl)methyl)pyrazine-2-carboxamide]: the IC50 was 10 µM at Coagulation factor XIa and 0.0054 µM at Human plasma kallikrein.
In the case of `O=C1Nc2ccc(Cl)c(F)c2[C@]2(CCN(c3cncc(C(=O)NCc4ccc(N5CC(O)(C(F)(F)F)C5)nc4)n3)C2)O1` [Example 36, (S)-6-(6-Chloro-5-fluoro-2-oxo-1,2-dihydrospiro[benzo[d][1,3]oxazine-4,3′-pyrrolidin]-1′-yl)-N-((6-(3-hydroxy-3-(trifluoromethyl)azetidin-1-yl)pyridin-3-yl)methyl)pyrazine-2-carboxamide], the IC50 stood at 10 µM at Coagulation factor XIa and 0.0437 µM at Human plasma kallikrein.
For `O=C1Nc2ccc(Cl)c(F)c2[C@]2(CCN(c3cncc(C(=O)NCc4ccc(N5CCC5)nc4)n3)C2)O1` [Example 37, (S)-N-((6-(Azetidin-1-yl)pyridin-3-yl)methyl)-6-(6-chloro-5-fluoro-2-oxo-1,2dihydrospiro[benzo[d][1,3]oxazine-4,3′-pyrrolidin]-1′-yl)pyrazine-2-carboxamide] the same measures were 10 µM and 0.0444 µM.
`O=C1Nc2ccc(Cl)c(F)c2[C@]2(CCN(c3cncc(C(=O)NCc4ccc(N5CC[C@H](F)C5)nc4)n3)C2)O1` [Example 38, (S)-6-(6-Chloro-5-fluoro-2-oxo-1,2-dihydrospiro[benzo[d][1,3]oxazine-4,3′-pyrrolidin]-1′-yl)-N-((6-((S)-3-fluoropyrrolidin-1-yl)pyridin-3-yl)methyl)pyrazine-2-carboxamide]: the IC50 at Coagulation factor XIa came to 10 µM; at Human plasma kallikrein, 0.0358 µM.
As to `O=C1Nc2ccc(Cl)c(F)c2[C@]2(CCN(c3cncc(C(=O)NCc4ccc(N5CC[C@@H](F)C5)nc4)n3)C2)O1` [Example 39, (S)-6-(6-Chloro-5-fluoro-2-oxo-1,2-dihydrospiro[benzo[d][1,3]oxazine-4,3′-pyrrolidin]-1′-yl)-N-((6-((R)-3-fluoropyrrolidin-1-yl)pyridin-3-yl)methyl)pyrazine-2-carboxamide], the results for the concentration for half-maximal inhibition (IC50) at Coagulation factor XIa and at Human plasma kallikrein were 10 µM and 0.0258 µM, respectively.
The like results for `O=C1Nc2ccc(Cl)c(F)c2[C@]2(CCN(c3cncc(C(=O)NCc4ccc(N5CC6CC6C5)nc4)n3)C2)O1` (stereo partly drawn) [Example 40, N-((6-(3-Azabicyclo[3.1.0]hexan-3-yl)pyridin-3-yl)methyl)-6-((S)-6-chloro-5-fluoro-2-oxo-1,2-dihydrospiro[benzo[d][1,3]oxazine-4,3′-pyrrolidin]-1′-yl)pyrazine-2-carboxamide] were, in that order, 10 µM and 0.0186 µM.
The like results for `O=C1Nc2ccc(Cl)c(F)c2[C@]2(CCN(c3cncc(C(=O)NCc4ccc(N5CCCCC5)nc4)n3)C2)O1` [Example 41, (S)-6-(6-Chloro-5-fluoro-2-oxo-1,2-dihydrospiro[benzo[d][1,3]oxazine-4,3′-pyrrolidin]-1′-yl)-N-((6-(piperidin-1-yl)pyridin-3-yl)methyl)pyrazine-2-carboxamide] were, in that order, 10 µM and 0.0354 µM.
For `O=C1Nc2ccc(Cl)c(F)c2[C@]2(CCN(c3cncc(C(=O)NCc4ccc(N5CCOCC5)nc4)n3)C2)O1` [Example 42, (S)-6-(6-Chloro-5-fluoro-2-oxo-1,2-dihydrospiro[benzo[d][1,3]oxazine-4,3′-pyrrolidin]-1′-yl)-N-((6-morpholinopyridin-3-yl)methyl)pyrazine-2-carboxamide] the same measures were 10 µM and 0.0118 µM.
Regarding `CN1CCN(c2ccc(CNC(=O)c3cncc(N4CC[C@]5(C4)OC(=O)Nc4ccc(Cl)c(F)c45)n3)cn2)CC1` [Example 43, (S)-6-(6-Chloro-5-fluoro-2-oxo-1,2-dihydrospiro[benzo[d][1,3]oxazine-4,3′-pyrrolidin]-1′-yl)-N-((6-(4-methylpiperazin-1-yl)pyridin-3-yl)methyl)pyrazine-2-carboxamide], the figures for the IC50 on Coagulation factor XIa and at Human plasma kallikrein were 10 µM and 0.0017 µM, respectively.
For `CCC(F)(F)NCc1ccc(CNC(=O)c2cnnc(N3CC[C@]4(C3)OC(=O)Nc3ccc(Cl)c(F)c34)c2)cc1` [Example 44, (S)-6-(6-Chloro-5-fluoro-2-oxo-1,2-dihydrospiro[benzo[d][1,3]oxazine-4,3′-pyrrolidin]-1′-yl)-N-(4-(((1,1-difluoropropyl)amino)methyl)benzyl)pyridazine-4-carboxamide] the same measures were 7.66 µM and 0.0583 µM.
The like results for `CCC(C)NCc1ccc(CNC(=O)c2cnnc(N3CC[C@]4(C3)OC(=O)Nc3ccc(Cl)c(F)c34)c2)cc1` (stereo partly drawn) [Example 45, N-(4-((sec-Butylamino)methyl)benzyl)-6-((S)-6-chloro-5-fluoro-2-oxo-1,2-dihydrospiro[benzo[d][1,3]oxazine-4,3′-pyrrolidin]-1′-yl)pyridazine-4-carboxamide] were, in that order, 10 µM and 0.0158 µM.
The like results for `CCC(NCc1ccc(CNC(=O)c2cnnc(N3CC[C@]4(C3)OC(=O)Nc3ccc(Cl)c(F)c34)c2)cc1)C(F)(F)F` (stereo partly drawn) [Example 46, (S)-6-(6-Chloro-5-fluoro-2-oxo-1,2-dihydrospiro[benzo[d][1,3]oxazine-4,3′-pyrrolidin]-1′-yl)-N-(4-(((1,1,1-trifluorobutan-2-yl)amino)methyl)benzyl) pyridazine-4-carboxamide] were, in that order, 10 µM and 0.038 µM.
Turning to `O=C1Nc2ccc(Cl)c(F)c2[C@]2(CCN(c3cc(C(=O)NCc4ccc(CN5CC(F)C5)cc4)cnn3)C2)O1` [Example 47, (S)-6-(6-chloro-5-fluoro-2-oxo-1,2-dihydrospiro[benzo[d][1,3]oxazine-4,3′-pyrrolidin]-1′-yl)-N-(4-((3-fluoroazetidin-1-yl)methyl)benzyl)pyridazine-4-carboxamide], the IC50 on Coagulation factor XIa is 10 µM; on Human plasma kallikrein, 0.0138 µM.
Regarding `CC(C)N(C)Cc1ccc(CNC(=O)c2cnnc(N3CC[C@]4(C3)OC(=O)Nc3ccc(Cl)c(F)c34)c2)cc1` [Example 48, (S)-6-(6-Chloro-5-fluoro-2-oxo-1,2-dihydrospiro[benzo[d][1,3]oxazine-4,3′-pyrrolidin]-1′-yl)-N-(4-((isopropyl(methyl)amino)methyl)benzyl)pyridazine-4-carboxamide], the half-inhibitory concentration (IC50) at Coagulation factor XIa was found to be 10 µM; at Human plasma kallikrein, 0.0059 µM.
With `N#CCCN(Cc1ccc(CNC(=O)c2cnnc(N3CC[C@]4(C3)OC(=O)Nc3ccc(Cl)c(F)c34)c2)cc1)C1CC1` [Example 49, (S)-6-(6-Chloro-5-fluoro-2-oxo-1,2-dihydrospiro[benzo[d][1,3]oxazine-4,3′-pyrrolidin]-1′-yl)-N-(4-(((2-cyanoethyl)(cyclopropyl)amino)methyl)benzyl)pyridazine-4-carboxamide], the IC50 on Coagulation factor XIa came to 10 µM; on Human plasma kallikrein, 0.0089 µM.
The like results for `N#CC1(F)CN(Cc2ccc(CNC(=O)c3cnnc(N4CC[C@]5(C4)OC(=O)Nc4ccc(Cl)c(F)c45)c3)cc2)C1` [Example 50, (S)-6-(6-Chloro-5-fluoro-2-oxo-1,2-dihydrospiro[benzo[d][1,3]oxazine-4,3′-pyrrolidin]-1′-yl)-N-(4-((3-cyano-3-fluoroazetidin-1-yl)methyl)benzyl)pyridazine-4-carboxamide] were, in that order, 10 µM and 0.0266 µM.
As for `O=C1Nc2ccc(Cl)c(F)c2[C@]2(CCN(c3cncc4c3CCN(Cc3ccc(Cn5ccccc5=O)cc3)C4)C2)O1` [Example 51, (S)-6-Chloro-5-fluoro-1′-(7-(4-((2-oxopyridin-1(2H)-yl)methyl)benzyl)-5,6,7,8-tetrahydro-2,7-naphthyridin-4-yl)spiro[benzo[d][1,3]oxazine-4,3′-pyrrolidin]-2(1H)-one], the IC50 was found to be 10 µM at Coagulation factor XIa and 0.0459 µM on Human plasma kallikrein.
`O=C(Cc1ccc(Cn2ccccc2=O)cc1)Nc1cncc(N2CC[C@]3(C2)OC(=O)Nc2ccc(Cl)c(F)c23)c1` [Example 52, (S)-N-(5-(6-Chloro-5-fluoro-2-oxo-1,2-dihydrospiro[benzo[d][1,3]oxazine-4,3′-pyrrolidin]-1′-yl)pyridin-3-yl)-2-(4-((2-oxopyridin-1(2H)-yl)methyl)phenyl)acetamide]: the IC50 at Coagulation factor XIa was 10 µM; on Human plasma kallikrein, 0.019 µM.
